Laboratory results published in ChEMBL document CHEMBL3639125, “1,4-oxazepines as BACE1 and/or BACE2 inhibitors” (2014).
pIC50: −log10 of the molar value.

Experiments:
Beta-secretase 1 = Beta-secretase 1 (Homo sapiens, UniProt P56817); assay: Immunofluorescence Resonance Energy Transfer (FRET) Assay: The FRET assay was performed essentially as described in Gruninger-Leitch et al., Journal of Biological Chemistry (2002) 277(7) 4687-93 (Substrate and inhibitor profile of BACE (beta-secretase) and comparison with other mammalian aspartic proteases). In summary, a peptide is designed that is cleaved by the protease. The peptide is labelled with dabcyl at the N terminus and Lucifer Yellow at the C-terminus, such that for an intact peptide the Lucifer Yellow fluorescence is quenched by the dabcyl. When the peptide is cut by BACE2, the quenching is removed and a fluorescent signal is generated. The assay was performed as described in Grueninger et al. 2002 at pH 4.5 using a substrate concentration of 5 μM. A FRET peptide based on the TMEM27 sequence was devised. dabcyl-QTLEFLKIPS-LucY (SEQ ID NO: 1). […] Conversely, BACE1 had insignificant activity against this peptide.
Chain of Beta-secretase 1 (P56817 whole entry): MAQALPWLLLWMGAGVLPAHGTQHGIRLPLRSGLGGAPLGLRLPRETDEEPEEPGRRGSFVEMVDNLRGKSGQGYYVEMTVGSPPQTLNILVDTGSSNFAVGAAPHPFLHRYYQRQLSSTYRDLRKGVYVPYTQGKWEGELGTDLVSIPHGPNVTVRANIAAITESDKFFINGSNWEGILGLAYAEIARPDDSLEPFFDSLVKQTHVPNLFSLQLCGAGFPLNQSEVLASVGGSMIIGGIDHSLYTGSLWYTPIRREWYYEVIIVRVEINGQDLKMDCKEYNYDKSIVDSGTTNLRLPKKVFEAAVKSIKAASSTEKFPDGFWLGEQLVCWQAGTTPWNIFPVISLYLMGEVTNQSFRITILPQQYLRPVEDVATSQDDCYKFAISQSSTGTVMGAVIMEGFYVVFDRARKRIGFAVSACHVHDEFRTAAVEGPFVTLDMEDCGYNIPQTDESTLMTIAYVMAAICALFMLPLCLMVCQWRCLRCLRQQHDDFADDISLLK

Beta-secretase 2 = molecular target: T1, Beta-secretase 2 (Homo sapiens, UniProt Q9Y5Z0); assay: In summary, a peptide is designed that is cleaved by the protease. The peptide is labelled with dabcyl at the N terminus and Lucifer Yellow at the C-terminus, such that for an intact peptide the Lucifer Yellow fluorescence is quenched by the dabcyl. When the peptide is cut by BACE2, the quenching is removed and a fluorescent signal is generated.
T1 sequence (Q9Y5Z0 whole entry): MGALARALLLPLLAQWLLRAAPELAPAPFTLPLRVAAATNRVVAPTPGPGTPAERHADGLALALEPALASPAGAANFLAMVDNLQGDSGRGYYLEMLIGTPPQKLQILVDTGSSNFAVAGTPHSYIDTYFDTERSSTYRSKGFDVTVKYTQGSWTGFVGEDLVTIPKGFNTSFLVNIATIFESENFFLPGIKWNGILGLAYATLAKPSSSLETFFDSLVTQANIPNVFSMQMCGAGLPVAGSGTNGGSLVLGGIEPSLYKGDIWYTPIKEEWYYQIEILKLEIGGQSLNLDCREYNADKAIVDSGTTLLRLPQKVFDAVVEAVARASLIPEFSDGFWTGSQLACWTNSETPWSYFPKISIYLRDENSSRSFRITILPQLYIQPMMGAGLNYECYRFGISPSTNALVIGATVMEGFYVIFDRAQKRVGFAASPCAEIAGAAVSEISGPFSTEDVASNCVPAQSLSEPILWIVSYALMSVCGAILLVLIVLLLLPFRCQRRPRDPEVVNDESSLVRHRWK

pIC50 (Beta-secretase 2): 5.41
Structure (SMILES): CC1(C)OCC(N)=N[C@](C)(c2cc(Nc3cncc(C(F)(F)F)c3)ccc2F)C1(F)F
pIC50 (Beta-secretase 1): 5.72
